According to the supplement of paper PMC10307832:

What was measured:
Experiment in all cases: relative viability (nuclei count vs DMSO), 5 days (fraction); higher = more cells survive
[1] = compound: C1=CC=C2C(=C1)C=CC(=C2SSC3=C(C=CC4=CC=CC=C43)O)O [IPA-3] + C[C@]1(O)C[C@@H](c2nc(-c3ccc4ccc(-c5ccccc5)nc4c3)c3c(N)nccn32)C1 [Linsitinib] (partner 1 µM)
Procedure, shortened: (§1)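 Medians of duplicate plates are given as relative viability. That measure is the nuclei count in treated wells divided by the count in vehicle wells. Counts were taken on 4× images of lung cancer cell lines in 1536-well plates, 5 days after pin-tool dosing the day after seeding with one drug alone or a fixed anchor-drug dose plus five library-drug doses (not always all listed) in √10 steps.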

[2] = compound: C1=CC=C2C(=C1)C=CC(=C2SSC3=C(C=CC4=CC=CC=C43)O)O [IPA-3] + O=C(c1cc(Cc2n[nH]c(=O)c3ccccc23)ccc1F)N1CCN(C(=O)C2CC2)CC1 [Olaparib] (partner 8 µM)
Procedure, shortened: as §1

[3] = compound: Cc1ccc(-n2nc(C(C)(C)C)cc2NC(=O)Nc2ccc(OCCN3CCOCC3)c3ccccc23)cc1 [Doramapimod] + Cc1nc(NC(=O)N2CCC[C@H]2C(N)=O)sc1-c1ccnc(C(C)(C)C(F)(F)F)c1 [Alpelisib] (partner 2 µM)
Procedure, shortened: as §1

[4] = compound: Cc1ccc(-n2nc(C(C)(C)C)cc2NC(=O)Nc2ccc(OCCN3CCOCC3)c3ccccc23)cc1 [Doramapimod] + Cc1nc(Nc2ncc(C(=O)Nc3c(C)cccc3Cl)s2)cc(N2CCN(CCO)CC2)n1 [Dasatinib] (partner 0.075 µM)
Procedure, shortened: as §1

Row | Cell Line | relative viability ([1]; first compound 0.2 µM) | relative viability ([1]; first compound 0.6325 µM) | relative viability ([1]; first compound 2 µM) | relative viability ([1]; first compound 6.325 µM) | relative viability ([1]; first compound 20 µM) | relative viability ([2]; first compound 0.2 µM) | relative viability ([2]; first compound 0.6325 µM) | relative viability ([2]; first compound 2 µM) | relative viability ([2]; first compound 6.325 µM) | relative viability ([2]; first compound 20 µM) | relative viability ([3]; first compound 0.02 µM) | relative viability ([3]; first compound 0.06325 µM) | relative viability ([3]; first compound 0.2 µM) | relative viability ([3]; first compound 0.6325 µM) | relative viability ([3]; first compound 2 µM) | relative viability ([4]; first compound 0.02 µM) | relative viability ([4]; first compound 0.06325 µM) | relative viability ([4]; first compound 0.2 µM) | relative viability ([4]; first compound 0.6325 µM) | relative viability ([4]; first compound 2 µM)
1 | NCI-H1793 | 1.24 | 0.794 | 0.977 | 1.06 | 1.15 | 0.699 | 0.773 | 0.923 | 0.893 | 1.2 | 0.788 | 0.595 | 0.786 | 0.643 | 0.595 | 0.335 | 0.379 | 0.368 | 0.36 | 0.344
2 | NCI-H1623 |  |  |  |  |  |  |  |  |  |  |  |  |  |  |  | 0.534 | 0.522 | 0.497 | 0.495 | 0.521
3 | NCI-H2009 | 1.26 | 1.17 | 1.24 | 1.13 | 1.18 | 0.662 | 0.68 | 0.708 | 0.635 | 0.622 | 1.23 | 1.22 | 1.22 | 1.13 | 1.13 | 0.345 | 0.382 | 0.422 | 0.529 | 0.297
4 | ABC-1 | 0.862 | 0.752 |  | 0.715 | 1.06 | 0.827 | 0.78 | 0.582 | 0.658 | 0.89 | 1.09 | 0.839 | 1.14 | 1.08 | 0.954 | 0.572 | 0.581 | 0.539 | 0.534 | 0.498
5 | IA-LM | 0.922 | 0.526 | 0.639 | 0.505 | 0.404 | 1.22 | 0.814 | 0.906 | 0.651 | 0.814 | 0.658 | 0.728 | 0.693 | 0.73 | 0.669 |  |  |  |  | 
6 | NCI-H322M | 1.01 | 0.941 | 0.987 | 0.947 | 0.978 | 0.91 | 0.786 | 0.817 | 0.776 | 0.746 | 0.774 | 0.734 | 0.785 | 0.801 | 0.933 | 0.276 | 0.28 | 0.259 | 0.262 | 0.24
7 | NCI-H522 |  |  |  |  |  | 0.52 | 0.663 | 0.699 | 0.571 | 0.671 |  |  |  |  |  | 0.715 | 0.851 | 0.863 | 0.785 | 0.812
8 | NCI-H1299 | 1.16 | 0.99 | 0.942 | 0.946 | 0.999 | 1.02 | 0.953 | 0.983 | 0.963 | 0.983 | 1.12 | 1.13 | 1.1 | 1.1 | 1.01 |  |  |  |  | 
